Earlier results as cited in patent US20110086369A1, “FLUORESCENT COMPOUNDS FOR THE DIAGNOSIS OF INFECTIONS, PRODUCTION METHOD, AND APPLICATIONS THEREOF” (priority 2008, published 2011).

Test system: Leishmania
Conditions: in Leishmania

## CCCCCCCCCCCCCCCCOP(=O)([O-])OCC[N+](C)(C)C [MT, hexadecylphosphocholine]
  intracellular concentration: values in the millimolar rank
